Results on 9 molecules are retold here after patent publication US4440779A, “Tricyclic derivatives of substituted pyrrole acids as analgesic and anti-inflammatory agents” (Merck & Co., Inc., priority 1982, dated 1984).

Structures are written as SMILES.

The test system of series [1] is edema induced by carragenin in rat foot. The series can be described thus: rat foot edema assay (carragenin-induced edema, C.F.E.). Type of series: in vivo, rat (Sprague Dawley). Conditions: 1 h before carragenin, read at 3 h; for inhibition in vivo at 3 mg/kg: 3 mg/kg oral; for inhibition in vivo at 30 mg/kg: 30 mg/kg oral; for inhibition in vivo at 10 mg/kg: 10 mg/kg oral; for inhibition in vivo at 20 mg/kg: 20 mg/kg oral. On the procedure: The rat foot edema assay for determining anti-inflammatory activity is based on the ability of the compounds of Formula I to inhibit the edema induced by the injection of an inflammatory (phlogistic) agent into the tissues of the foot of a rat. Several groups of six male rats (Sprague Dawley strain, 150±30 g each) are given orally the compounds to be tested one hour before 0.1 ml of a 1% suspension of carragenin in 0.5% methocel is injected into the planar surface of each rat's right hind paws. Immediately and again three hours later, the foot volume is measured and recorded. The difference between the initial and final volumes is a measurement of the edema produced. Usually the compounds to be tested are suspended or dissolved in 0.5% methocel, and their activities measured against that produced by a known anti-inflammatory agent e.g., zomepirac (U.S. Pat. No. 3,952,012) according to standard procedure. The activity of a tested compound is also compared with that produced by a "control" rat which receives only the methocel solution. A test of 3 mg/kg, 10 mg/kg plus one dose of 30 mg/kg are usually given.

The subject of the next series is gastric mucosa. Kind of series: Gastric Hemorrhage Lesion Formation Assay (GHLF). The note with it: fasted, 4 h. Type of series: in vivo, rat (Sprague-Dawley). On the procedure:
In other words, they induce less gastric irritation than Zompirac. The GHLF test is conducted according to the following procedure:
Rats (Sprague-Dawley, Males, 120-180 gm) are fasted overnight and dosed orally with drug suspended in 0.5% methylcellulose. The drug concentration is adjusted so that each animal received 1.0 ml/100 gm body weight. Four hours later the animals are killed by asphixiation in carbon dioxide, the stomachs removed, cut open and everted. The mucosal lining is washed and examined under 3X magnification. The lesions are identified as perforations of the gastric mucosa, many of which perforate right through the wall of the stomach.
The results are expressed in two ways, the average number of lesions per stomach, and the number of animals in the group showing at least one lesion.

In series [1], `COc1ccc2c(c1)OCc1cc(CC(=O)O)n(C)c1C2=O` [7-OCH3 / OCH2 / H, 7-methoxy-4,10-dihydro-1-methyl-10-oxo-1H[1]-benzoxepino[4,3-b]pyrrole-2-acetic acid] yielded an inhibition in vivo at 3 mg/kg of 44% and an inhibition in vivo at 30 mg/kg of 61%. In addition, in the series on gastric mucosa (90 mg/kg oral), the Animals with lesions is 2/6 and the “Ave. lesions per animal” value was determined as 1.0. For the same molecule, in the series on gastric mucosa (120 mg/kg oral), the Animals with lesions is reported as 4/6 and the “Ave. lesions per animal” value is given as 4.0.
In series [1], `Cc1ccc2c(c1)OCc1cc(CC(=O)O)n(C)c1C2=O` [7-CH3 / OCH2 / H, 1,7-dimethyl-4,10-dihydro-10-oxo-1H[1]benzoxepino[4,3-b]-pyrrole-2-acetic acid] registered an inhibition in vivo at 3 mg/kg of 32.1%, an inhibition in vivo at 10 mg/kg of 39.9% and an inhibition in vivo at 20 mg/kg of 42.6%. Also, in the series with gastric mucosa (30 mg/kg oral), the Animals with lesions is reported as 0/6 and the “Ave. lesions per animal” value was 0. Besides, in the series on gastric mucosa (60 mg/kg oral), the Animals with lesions is given as 1/6 and the “Ave. lesions per animal” value was determined as 0.16. Further, in the series on gastric mucosa (90 mg/kg oral), the Animals with lesions is reported as 2/6 and the “Ave. lesions per animal” value was 0.33. Further, in the series on gastric mucosa (120 mg/kg oral), the Animals with lesions was 4/6 and the “Ave. lesions per animal” value is reported as 3.3.
On to `CC(C(=O)O)c1cc2c(n1C)C(=O)c1ccc(Cl)cc1CC2` (stereo not drawn) [7-Cl / CH2CH2 / CH3, 1,4,5,10-Tetrahydro-7-chloro-1,α-dimethyl-10-oxobenzocyclohepta[1,2-b]pyrrole-2-acetic acid], for which, in series [1], the inhibition in vivo at 20 mg/kg turned out to be 36.8% and the inhibition in vivo at 30 mg/kg is 59%.
In series [1], `Cn1c(CC(=O)O)cc2c1C(=O)c1ccc(Cl)cc1OC2` [7-Cl / OCH2 / H, 7-chloro-4,10-dihydro-1-methyl-10-oxo-1H-[1]benzoxepino[4,3-b]pyrrole-2-acetic acid] came in with an inhibition in vivo at 3 mg/kg of 46%, an inhibition in vivo at 10 mg/kg of 64% and an inhibition in vivo at 30 mg/kg of 54%. Also, in the series with gastric mucosa (60 mg/kg oral), the Animals with lesions is given as 0/6 and the “Ave. lesions per animal” value was found to be 0. Further, in the series with gastric mucosa (90 mg/kg oral), the Animals with lesions is recorded as 5/6 and the “Ave. lesions per animal” value is given as 5.0.
Turning to `Cn1c(CC(=O)O)cc2c1C(=O)c1ccc(Cl)cc1CO2` [7-Cl / CH2O / H], in series [1], testing at 20 mg/kg gave an inhibition in vivo of 50%.
Turning to `Cn1c(CC(=O)O)cc2c1C(=O)c1ccc(F)cc1OC2` [7-F / OCH2 / H], in series [1], testing at 10 mg/kg gave an inhibition in vivo of 31% and at 30 mg/kg the inhibition in vivo was 40%.
In series [1], `CC(C(=O)O)c1cc2c(n1C)C(=O)c1ccc(Cl)cc1OC2` (stereo not shown) [7-Cl / OCH2 / CH3] had an inhibition in vivo at 30 mg/kg of 60%.
In series [1], `Cn1c(CC(=O)O)cc2c1C(=O)c1ccc(Cl)cc1CC2` [7-Cl / CH2CH2 / H] returned an inhibition in vivo at 3 mg/kg of 29.9%, an inhibition in vivo at 10 mg/kg of 41.5% and an inhibition in vivo at 30 mg/kg of 57.5%. For the same molecule, in the series with gastric mucosa (100 mg/kg oral), the Animals with lesions was 1/5 and the “Ave. lesions per animal” value turned out to be 0.2. In addition, in the series with gastric mucosa (300 mg/kg oral), the Animals with lesions is reported as 0/5 and the “Ave. lesions per animal” value was determined as 0. In the series on gastric mucosa (600 mg/kg oral), the Animals with lesions is recorded as 4/5 and the “Ave. lesions per animal” value stood at 1.8.
In turn, `Cn1c(CC(=O)O)cc2c1C(=O)c1ccc(Cl)cc1SC2` [7-Cl / SCH2 / H, 7-Chloro-4,10-dihydro-1-methyl-10-oxo-1H-[1]benzothiepino[4,3-b]pyrrole-2-acetic acid] yielded an inhibition in vivo at 30 mg/kg in series [1] of 51%.

The inhibition in vivo is the relative decrease from the control value, in per cent. Read a low inhibition in vivo as little suppression.
